In ChEMBL document CHEMBL1152211, “Structure-activity study at positions 3 and 4 of human neuropeptide S” (Bioorg Med Chem, 2008):
Non-standard residues stand in square brackets, D forms with d. Residues, ends and D or L forms follow the SMILES beside them. *: point of attachment. Arg(Me2a) = CN(C)C(=N)NCCC[C@H](N)C(=O)O; Arg(Me2s) = CN=C(NC)NCCC[C@H](N)C(=O)O; Cit = NC(=O)NCCC[C@H](N)C(=O)O; Tos = Cc1ccc(S(=O)(=O)*)cc1; Dab = NCC[C@H](N)C(=O)O

target: T1, Neuropeptide S receptor (Mus musculus) (UniProt Q8BZP8); assay: Agonist activity at mouse NPSR expressed in HEK293 cells assessed as increase in intracellular calcium mobilization at 10 uM by FLIPR; type: functional, cell-based
T1 sequence (whole entry): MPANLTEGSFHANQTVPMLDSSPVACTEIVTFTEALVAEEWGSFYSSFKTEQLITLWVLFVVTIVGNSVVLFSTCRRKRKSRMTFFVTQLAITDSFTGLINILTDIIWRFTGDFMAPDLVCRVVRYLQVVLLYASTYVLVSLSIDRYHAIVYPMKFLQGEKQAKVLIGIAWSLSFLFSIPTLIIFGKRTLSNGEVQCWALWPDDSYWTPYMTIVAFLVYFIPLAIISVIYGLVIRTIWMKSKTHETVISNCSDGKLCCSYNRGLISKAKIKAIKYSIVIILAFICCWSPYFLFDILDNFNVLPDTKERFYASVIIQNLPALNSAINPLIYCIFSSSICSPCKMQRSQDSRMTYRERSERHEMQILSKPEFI

| Activity | Molecule |
| --- | --- |
| 161% | H-SFNNGVGTGMKKTSFQRAKS-OH |
| 73% | H-SFDNGVGTGMKKTSFQRAKS-OH |
| 36% | H-SFLNGVGTGMKKTSFQRAKS-OH |
| 129% | H-SFVNGVGTGMKKTSFQRAKS-OH |

More lines, now with the values behind:

| Molecule | Activity |
| --- | --- |
| CNC(=O)C[C@H](NC(=O)[C@H](CCCNC(=N)N)NC(=O)[C@H](Cc1ccccc1)NC(=O)[C@@H](N)CO)C(=O)NCC(=O)N[C@H](C(=O)NCC(=O)N[C@H](C(=O)NCC(=O)N[C@@H](CCSC)C(=O)N[C@@H](CCCCN)C(=O)N[C@@H](CCCCN)C(=O)N[C@H](C(=O)N[C@@H](CO)C(=O)N[C@@H](Cc1ccccc1)C(=O)N[C@@H](CCC(N)=O)C(=O)N[C@@H](CCCNC(=N)N)C(=O)N[C@@H](C)C(=O)N[C@@H](CCCCN)C(=O)N[C@@H](CO)C(=O)O)[C@@H](C)O)[C@@H](C)O)C(C)C (H-SFRD(NHMe)GVGTGMKKTSFQRAKS-OH) | 188% |
| CSCC[C@H](NC(=O)CNC(=O)[C@@H](NC(=O)CNC(=O)[C@@H](NC(=O)CNC(=O)[C@H](CC(N)=O)NC(=O)[C@H](CCCNC(=N)NS(=O)(=O)c1ccc(C)cc1)NC(=O)[C@H](Cc1ccccc1)NC(=O)[C@@H](N)CO)C(C)C)[C@@H](C)O)C(=O)N[C@@H](CCCCN)C(=O)N[C@@H](CCCCN)C(=O)N[C@H](C(=O)N[C@@H](CO)C(=O)N[C@@H](Cc1ccccc1)C(=O)N[C@@H](CCC(N)=O)C(=O)N[C@@H](CCCNC(=N)N)C(=O)N[C@@H](C)C(=O)N[C@@H](CCCCN)C(=O)N[C@@H](CO)C(=O)O)[C@@H](C)O (H-SFR(Tos)NGVGTGMKKTSFQRAKS-OH) | 104% |

target: T1, Neuropeptide S receptor (Mus musculus); assay: Agonist activity at mouse NPSR expressed in HEK293 cells assessed as increase in intracellular calcium mobilization by FLIPR relative to baseline; type: functional, cell-based

| Emax | Molecule |
| --- | --- |
| 207% | CSCC[C@H](NC(=O)CNC(=O)[C@@H](NC(=O)CNC(=O)[C@@H](NC(=O)CNC(=O)[C@H](CC(N)=O)NC(=O)[C@H](CCN)NC(=O)[C@H](Cc1ccccc1)NC(=O)[C@@H](N)CO)C(C)C)[C@@H](C)O)C(=O)N[C@@H](CCCCN)C(=O)N[C@@H](CCCCN)C(=O)N[C@H](C(=O)N[C@@H](CO)C(=O)N[C@@H](Cc1ccccc1)C(=O)N[C@@H](CCC(N)=O)C(=O)N[C@@H](CCCNC(=N)N)C(=O)N[C@@H](C)C(=O)N[C@@H](CCCCN)C(=O)N[C@@H](CO)C(=O)O)[C@@H](C)O (H-SF[Dab]NGVGTGMKKTSFQRAKS-OH) |
| 285% | CSCC[C@H](NC(=O)CNC(=O)[C@@H](NC(=O)CNC(=O)[C@@H](NC(=O)CNC(=O)[C@H](CC(N)=O)NC(=O)[C@H](CCCNC(N)=O)NC(=O)[C@H](Cc1ccccc1)NC(=O)[C@@H](N)CO)C(C)C)[C@@H](C)O)C(=O)N[C@@H](CCCCN)C(=O)N[C@@H](CCCCN)C(=O)N[C@H](C(=O)N[C@@H](CO)C(=O)N[C@@H](Cc1ccccc1)C(=O)N[C@@H](CCC(N)=O)C(=O)N[C@@H](CCCNC(=N)N)C(=O)N[C@@H](C)C(=O)N[C@@H](CCCCN)C(=O)N[C@@H](CO)C(=O)O)[C@@H](C)O (H-SF[Cit]NGVGTGMKKTSFQRAKS-OH) |
| 272% | H-SFTNGVGTGMKKTSFQRAKS-OH |

More lines, now with the values behind:

| Molecule | Emax |
| --- | --- |
| H-SFCNGVGTGMKKTSFQRAKS-OH | 256% |
| H-SFRTGVGTGMKKTSFQRAKS-OH | 253% |

target: T2, Neuropeptide S receptor (Mus musculus, UniProt Q8BZP8); assay: Agonist activity at mouse NPSR expressed in HEK293 cells assessed as increase in intracellular calcium mobilization by FLIPR; type: functional, cell-based
T2 sequence (Q8BZP8 whole entry): T1 sequence (whole entry)

| EC50 | Molecule |
| --- | --- |
| 204 nM | CSCC[C@H](NC(=O)CNC(=O)[C@@H](NC(=O)CNC(=O)[C@@H](NC(=O)CNC(=O)[C@H](CC(N)=O)NC(=O)[C@H](CCN)NC(=O)[C@H](Cc1ccccc1)NC(=O)[C@@H](N)CO)C(C)C)[C@@H](C)O)C(=O)N[C@@H](CCCCN)C(=O)N[C@@H](CCCCN)C(=O)N[C@H](C(=O)N[C@@H](CO)C(=O)N[C@@H](Cc1ccccc1)C(=O)N[C@@H](CCC(N)=O)C(=O)N[C@@H](CCCNC(=N)N)C(=O)N[C@@H](C)C(=O)N[C@@H](CCCCN)C(=O)N[C@@H](CO)C(=O)O)[C@@H](C)O (H-SF[Dab]NGVGTGMKKTSFQRAKS-OH) |
| 166 nM | CSCC[C@H](NC(=O)CNC(=O)[C@@H](NC(=O)CNC(=O)[C@@H](NC(=O)CNC(=O)[C@H](CC(N)=O)NC(=O)[C@H](CCCNC(N)=O)NC(=O)[C@H](Cc1ccccc1)NC(=O)[C@@H](N)CO)C(C)C)[C@@H](C)O)C(=O)N[C@@H](CCCCN)C(=O)N[C@@H](CCCCN)C(=O)N[C@H](C(=O)N[C@@H](CO)C(=O)N[C@@H](Cc1ccccc1)C(=O)N[C@@H](CCC(N)=O)C(=O)N[C@@H](CCCNC(=N)N)C(=O)N[C@@H](C)C(=O)N[C@@H](CCCCN)C(=O)N[C@@H](CO)C(=O)O)[C@@H](C)O (H-SF[Cit]NGVGTGMKKTSFQRAKS-OH) |
| 871 nM | H-SFTNGVGTGMKKTSFQRAKS-OH |

The remaining lines, values behind:

| Molecule | EC50 |
| --- | --- |
| H-SFCNGVGTGMKKTSFQRAKS-OH | 372 nM |
| H-SFRTGVGTGMKKTSFQRAKS-OH | 102 nM |
| C/N=C(/NC)NCCC[C@H](NC(=O)[C@H](Cc1ccccc1)NC(=O)[C@@H](N)CO)C(=O)N[C@@H](CC(N)=O)C(=O)NCC(=O)N[C@H](C(=O)NCC(=O)N[C@H](C(=O)NCC(=O)N[C@@H](CCSC)C(=O)N[C@@H](CCCCN)C(=O)N[C@@H](CCCCN)C(=O)N[C@H](C(=O)N[C@@H](CO)C(=O)N[C@@H](Cc1ccccc1)C(=O)N[C@@H](CCC(N)=O)C(=O)N[C@@H](CCCNC(=N)N)C(=O)N[C@@H](C)C(=O)N[C@@H](CCCCN)C(=O)N[C@@H](CO)C(=O)O)[C@@H](C)O)[C@@H](C)O)C(C)C (H-SF[Arg(Me2s)]NGVGTGMKKTSFQRAKS-OH) | 31.6 nM |
| CSCC[C@H](NC(=O)CNC(=O)[C@@H](NC(=O)CNC(=O)[C@@H](NC(=O)CNC(=O)[C@H](CC(N)=O)NC(=O)[C@H](CCCNC(=N)N(C)C)NC(=O)[C@H](Cc1ccccc1)NC(=O)[C@@H](N)CO)C(C)C)[C@@H](C)O)C(=O)N[C@@H](CCCCN)C(=O)N[C@@H](CCCCN)C(=O)N[C@H](C(=O)N[C@@H](CO)C(=O)N[C@@H](Cc1ccccc1)C(=O)N[C@@H](CCC(N)=O)C(=O)N[C@@H](CCCNC(=N)N)C(=O)N[C@@H](C)C(=O)N[C@@H](CCCCN)C(=O)N[C@@H](CO)C(=O)O)[C@@H](C)O (H-SF[Arg(Me2a)]NGVGTGMKKTSFQRAKS-OH) | 22.4 nM |
